Laboratory results as given in patent publication EP4600263A1, “KERATIN YK93-9, PREPARATION METHOD THEREFOR, PHARMACEUTICAL COMPOSITION THEREOF, AND USE THEREOF” (INSTITUTE OF MATERIA MEDICA, CHINESE ACADEMY OF MEDICAL …, priority 2022, dated 2024).
Counter-ions that a name gives are not always drawn.

Experiments:
[1] = tested on: mouse prostatic hyperplasia model; assay: pharmacodynamic test on mouse prostatic hyperplasia model (subcutaneous propionate testosterone); type: in vivo, Kunming mice; conditions: 30 days; for Average weight: male Kunming mice; for prostate index: wet weight of the prostate (mg)/body weight of the mouse (g)
Procedure: • Animals: Male Kunming mice, weight: 18-20 grams • Drugs: propionate testosterone injection (Ningbo Second Hormon Factory), finasteride (Merck Sharp & Dohme, MSD) • Instruments: electronic balance • Experiment grouping: Normal control group; • Model group: Androgen loading Model; • Positive control group: finasteride (1mg/kg) group; finasteride (3 mg/kg) group; • YK93-9 (0.5g/kg) group.
Preparation of experimental animals: The experimental animals were adapted to the experimental environment (temperature 22°C±2°C, relative humidity 50%±2%) for 1 day.
Subcutaneous injection of propionate testosterone to replicate mice prostatic hyperplasia model: Mice were randomly grouped 10 in each group before the model being established. Propionate testosterone (0.01mg/kg) in soybean oil was injected subcutaneously, once a day for 30 consecutive days. Mice in the normal control group were injected subcutaneously with an equal volume of sodium carboxymethyl cellulose. Immediately after the model was established, finasteride 1mg/kg, finasteride 3m g/kg, or YK93-9 0.5g/kg were orally administered. Mice were weighed on the next day. After 30 days of administration, mice were weighed, executed. The prostate was excised through a median incision in the lower abdomen, the wet weight was weighed, and the prostate index was calculated by the wet weight of the prostate (mg)/body weight of the mouse (g).
The average value, standard deviation and standard error of the prostate index in each group were calculated. The data from the groups were compared with each other by T.TEST, and P<0.05 was considered as a significant difference.

[2] = tested on: acetic acid-induced writhing of mice; assay: pharmacodynamic test on mouse pain model (acetic acid-induced writhing); type: in vivo, Kunming mice; conditions: Tramadol Hydrochloride 50mg/kg; 1% acetic acid intraperitoneally, writhing within 15 minutes
Procedure: • Animals: Male Kunming mice; • Drugs: Tramadol Hydrochloride Sustained Release Tablets, Glacial acetic acid, YK93-9; • Instruments: electronic balance, timer • Experiment grouping: • Normal control group; • Positive control group: Tramadol Hydrochloride group; • Protein YK93-9, (0.5g/kg) group.
Mice in the YK93-9 (0.5g/kg) group were administered by gavage, while mice in the model group were given an equal volume of CMC-Na once a day for 7 consecutive days. 30 minutes after the last administration, 1% acetic acid was administered intraperitoneally, and the writhing times of mice within 15 minutes was recorded, and the inhibition rate of drug-induced writhing reaction was calculated. The observation criteria were concave abdominal cavity, extended hind limbs, and raised buttocks.
The inhibition rate was calculated by (Mean number of writhing reactions in the normal control group - Mean number of writhing reactions in the treatment group)/Mean number of writhing reactions in the normal control group *100%.

[3] = tested on: Lewis lung cancer
Procedure: Subcutaneous inoculation of Lewis cell suspension to replicate mouse breast cancer model: The Lewis tumor tissue was ground into a suspension with a glass homogenizer, the tumor suspension was aspirated with a syringe, the number of live cells was calculated, the concentration of the cells was adjusted to 2.6*10^6/ml with physiological saline, and then the suspension was injected to the left armpit of the mouse with 0.2 ml/mouse. […] On the day of the treatment, the weight was measured, 20µl of blood was obtained from the orbital blood and the routine blood analysis was performed. The tumor blocks were stripped, weighed and photographed, and the tumor suppression rate was calculated.
The tumor suppression rate [(The average weight of the tumor in the normal control group - the average weight of the tumor in the experimental group) / The average weight of the tumor in the normal control group × 100 %] and the average value, standard deviation and standard errors of tumor weight were calculated . The data from the groups were compared with each other by T.TEST, and P<0.05 was considered as a significant difference.

[4] = tested on: EL-4 lymphoma
Procedure: Subcutaneous inoculation of EL-4 cell suspension to replicate a mouse lymphoma model: The EL-4 tumor tissue was ground into a suspension using a glass homogenizer, the tumor suspension was aspirated with a syringe, the number of live cells was calculated, the cell concentration was adjusted to 2.0*10^6/ml with physiological saline, and then the suspension was injected into the left armpit of mice with 0.2 ml/mouse. […] On the day of treatment, weight was measured, 20µl of blood was obtained from the orbital blood and the routine blood analysis was performed. The tumor blocks were stripped, weighed and photographed, and the tumor suppression rate was calculated.
(§1) The tumor suppression rate [(The average weight of the tumor in the normal control group - the average weight of the tumor in the experimental group) / The average weight of the tumor in the normal control group × 100 %] and average value, standard deviation and standard errors of tumor weight were calculated. The data from the groups were compared with each other by T.TEST, and P<0.05 was considered as a significant difference.

[5] = tested on: B16F10 melanoma
Procedure: Subcutaneous inoculation of B16F10 cell suspension to replicate a mouse melanoma model: Under sterile conditions, the tumor block was removed, ground into tumor fluid, the concentration was adjusted with physiological saline to 2.58 × 10^6 /ml, and 0.2 ml was taken to evenly inoculate subcutaneously on the armpit back of mice. On the next day, the animals were randomly grouped and administration began (recorded as Day 0). […] On the day of treatment, weight was measured, 20µL of blood was obtained by taking blood from the eye socket and the blood routine analysis was performed, the tumor block was peeled off, weighed and photographed, and the tumor suppression rate was calculated.
as §1

[6] = cyclophosphamide 0.1 g/kg group, before administration
[7] = cyclophosphamide 0.1 g/kg intraperitoneally, single time
[8] = cyclophosphamide 0.1 g/kg intraperitoneally, single time, vs normal control group
[9] = cyclophosphamide 100mg/kg, vs normal control group, P<0.05
[10] = cyclophosphamide 0.1 g/kg once a week

`CC(C)(C)NC(=O)[C@H]1CC[C@H]2[C@@H]3CC[C@H]4NC(=O)C=C[C@]4(C)[C@H]3CC[C@]12C` [finasteride] was tested, and the “wet weight of the prostate” value ([1]; finasteride 1mg/kg orally) was 31.8 ± 4.8 mg, the Average weight ([1]; finasteride 1mg/kg orally) was 43.5 ± 3.5 g and the prostate index ([1]; finasteride 1mg/kg orally) was 0.75±0.12. For the same compound, the “wet weight of the prostate” value ([1]; finasteride 3mg/kg orally) was 29.2 ± 1.4 mg, the Average weight ([1]; finasteride 3mg/kg orally) was 40.7 ± 3.1 g and the prostate index ([1]; finasteride 3mg/kg orally) was 0.72±0.08.
Compound `COc1cccc(C2(O)CCCCC2CN(C)C)c1` (stereo not drawn) [Tramadol Hydrochloride] has a Number of writhing [2] of 0.0±0.00.
For `O=P1(N(CCCl)CCCl)NCCCO1` (stereo not drawn) [cyclophosphamide, Cyclophosphamide], the “Change of weight Before administration” value [3, 6] was 17.60 ± 0.59 g, the “Change of weight After administration” value [3, 7] was 19.95 ± 0.77 g and the Tumor weight [3, 7] was 0.14 ± 0.09 g. It also gave a Tumor suppression [3, 8] of 95.35%, a Tumor weight [4, 7] of 0.12 ± 0.03 g and a Tumor suppression [4, 8] of 95.67%. The “leukocytes (routine blood analysis)” value [4, 9] was “significantly reduced”, the “lymphocytes (routine blood analysis)” value [4, 9] was “significantly reduced” and the “monocytes (routine blood analysis)” value [4, 9] was “significantly reduced”. The “neutrophils (routine blood analysis)” value [4, 9] was “significantly reduced”, the “Change of weight Before administration” value [5, 6] was 18.97 ± 0.55 g and the “Change of weight After administration” value [5, 10] was 19.07 ± 1.46 g. It also gave a Tumor weight [5, 10] of 0.26 ± 0.11 g and a Tumor suppression ([5]; cyclophosphamide 0.1 g/kg once a week, vs normal control group) of 85.82%.
